# Laboratory results from publication PMC11278161 (Marine Drugs, 2024).
# *1 amine or outer side, *2 acyl side, *3 side chain or, on linkers, in order; H or OH if unused. Where a SMILES comes first, the peptide text is derived from it. Bridges are numbered along the chain shown (N, C = ends). X1 = CC[C@@]1(OC(=O)CCC(=O)NCCOCCOCCOCCn2cc(COc3cc(C[*:1])cc(C[*:2])c3)nn2)C(=O)OCc2c1cc1n(c2=O)Cc2cc3ccccc3nc2-1; X2 = CC[C@@]1(OC(=O)Cn2cc(COc3cc(C[*:1])cc(C[*:2])c3)nn2)C(=O)OCc2c1cc1n(c2=O)Cc2cc3ccccc3nc2-1
# System: A549 cells
# Details: human
row,Compound,IC50
1,"CC[C@H](C)[C@@H]1NC(=O)[C@H](CC(N)=O)NC(=O)[C@@H]2CCCN2C(=O)[C@H](CC(N)=O)NC(=O)[C@H](CC(N)=O)NC(=O)[C@H](C(C)C)NC(=O)[C@H](CCCNC(=N)N)NC(=O)[C@@H]2CSSC[C@H](NC(=O)CNC(=O)[C@@H](N)CO)C(=O)N[C@@H](CSCc3cc(cc(OCc4cn(CC(=O)O[C@]5(CC)C(=O)OCc6c5cc5n(c6=O)Cc6cc7ccccc7nc6-5)nn4)c3)CSC[C@@H](C(N)=O)NC1=O)C(=O)N[C@@H](CO)C(=O)N[C@@H](CC(N)=O)C(=O)N1CCC[C@H]1C(=O)N[C@@H](C)C(=O)N2 [LsIA[2,4]-8] (H-SGCCSNPACRVNNPNIC-NH2; disulfide 3-9; linker 4-17 via X2)",0.216 µM
2,"CC[C@H](C)[C@@H]1NC(=O)[C@H](CC(N)=O)NC(=O)[C@@H]2CCCN2C(=O)[C@H](CC(N)=O)NC(=O)[C@H](CC(N)=O)NC(=O)[C@H](C(C)C)NC(=O)[C@H](CCCNC(=N)N)NC(=O)[C@@H]2CSSC[C@H](NC(=O)CNC(=O)[C@@H](N)CO)C(=O)N[C@@H](CSCc3cc(cc(OCc4cn(CCOCCOCCOCCNC(=O)CCC(=O)O[C@]5(CC)C(=O)OCc6c5cc5n(c6=O)Cc6cc7ccccc7nc6-5)nn4)c3)CSC[C@@H](C(N)=O)NC1=O)C(=O)N[C@@H](CO)C(=O)N[C@@H](CC(N)=O)C(=O)N1CCC[C@H]1C(=O)N[C@@H](C)C(=O)N2 [LsIA[2,4]-9] (H-SGCCSNPACRVNNPNIC-NH2; disulfide 3-9; linker 4-17 via X1)",0.338 µM
